The source of these data is patent US20220395487A1, “RIG-I INNATE IMMUNE RECEPTOR ANTAGONISTS AND METHODS OF USING SAME” (YALE UNIVERSITY, priority 2019, published 2022).

SMILES strings stand for the structures.

For assay [1], the target named is T1, RIG-I (Homo sapiens, UniProt O95786).
T1 sequence (O95786 1-925): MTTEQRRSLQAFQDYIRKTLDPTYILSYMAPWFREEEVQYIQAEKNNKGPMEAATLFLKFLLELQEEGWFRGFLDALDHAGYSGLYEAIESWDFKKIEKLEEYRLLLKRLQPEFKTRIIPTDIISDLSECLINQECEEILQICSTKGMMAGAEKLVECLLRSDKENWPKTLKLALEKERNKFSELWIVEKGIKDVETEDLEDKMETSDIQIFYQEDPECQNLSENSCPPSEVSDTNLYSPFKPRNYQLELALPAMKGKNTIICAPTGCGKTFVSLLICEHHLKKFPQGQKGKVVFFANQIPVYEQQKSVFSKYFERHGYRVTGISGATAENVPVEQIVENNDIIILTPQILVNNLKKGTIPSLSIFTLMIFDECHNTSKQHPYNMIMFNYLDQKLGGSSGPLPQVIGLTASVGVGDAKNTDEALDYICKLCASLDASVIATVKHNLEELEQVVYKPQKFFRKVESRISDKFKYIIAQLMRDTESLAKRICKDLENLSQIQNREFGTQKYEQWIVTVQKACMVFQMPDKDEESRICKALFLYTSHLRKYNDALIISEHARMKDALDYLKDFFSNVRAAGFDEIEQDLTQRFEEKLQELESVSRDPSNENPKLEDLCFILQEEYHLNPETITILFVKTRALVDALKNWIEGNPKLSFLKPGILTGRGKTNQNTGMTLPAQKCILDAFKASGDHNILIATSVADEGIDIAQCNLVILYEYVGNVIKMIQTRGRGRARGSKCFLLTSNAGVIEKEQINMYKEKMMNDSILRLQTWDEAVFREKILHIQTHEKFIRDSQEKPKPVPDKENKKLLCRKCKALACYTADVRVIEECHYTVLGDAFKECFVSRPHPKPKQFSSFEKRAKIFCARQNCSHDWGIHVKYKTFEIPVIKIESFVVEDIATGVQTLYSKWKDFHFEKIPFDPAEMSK
The experiment in a line: ADP-Glo ATPase assay. Format: biochemical. Set-up: The native, full-length protein was expressed and purified using methods adapted from published protocols; SUMO (pET-SUMO vector; captured on Ni-NTA) (N, cleaved yes); made in house; host or cells: Rosetta II(DE3) Escherichia coli. As to conditions: Poly I:C RNA activation, read-out: apparent IC50, RIG-I ATPase inhibition. On the procedure:
For the ADP-Glo assay system (V9101, Promega), RIG-I protein was diluted to 10 nM in assay buffer (25 mM MOPS pH 7.4, 150 mM NaCl, 2 mM DTT, and 2 mM Mg^2). For HTS experiments, Poly I:C RNA was used for RIG-I activation, and added to a final concentration of 0.4 μg/ml. To initiate the ATPase reactions, ATP was added to a final concentration of 200 μM. To test compounds, a 12-point serial dilution of the small molecule of interest was combined with DMSO, keeping the DMSO levels at a constant 1% throughout the entire drug dilution. Final drug concentrations ranged from 0 to 200 μM. The final volume for reaction was 20 μL per well, measured in a Corning 384-well plate (Plate ID: 3658). Reactions were allowed to proceed at room temperature for one hour, after which 2.5 μL of the ADP-Glo Reagent was added to each well. Samples were incubated at 25° C. for 45 min to terminate the ATPase reaction and deplete the remaining ATP. Next, 5 μL of Kinase Detection Reagent was added to each well in order to convert the ADP product back to ATP, which is then used as a substrate for the luminescent reporter, which was read on a Biotek Synergy HI Plate Reader.
Slopes from the twelve point curves were fit to a non-competitive, four variable inhibition curve in order to obtain IC50 values:
where X is Log10 [compound], Y is luminescence, Top and Bottom are the plateaus at Ymin and Ymax. […]

For assay [2], the target named is T1, RIG-I. The experiment in a line: NADH-coupled ATPase assay. Format: biochemical. As to conditions: for IC50: NADH-coupled ATPase assay; for RIG-I ATPase inhibition, result in words: SAR discussion of Table 1 compounds. Set-up: The native, full-length protein was expressed and purified using methods adapted from published protocols; SUMO (pET-SUMO vector; captured on Ni-NTA) (N, cleaved yes); made in house; host or cells: Rosetta II(DE3) Escherichia coli. The protocol:
In this case, RIG-I was activated by a well-defined synthetic RNA hairpin duplex (SLR10-OH), which was added to a final concentration of 250 nM. A coupled assay mixture consisting of 1 mM NADH, 100 U/ml lactic dehydrogenase, 500 U/ml pyruvate kinase, 2.5 mM phosphoenol pyruvic acid was added to the sample. A 12-point serial dilution of the compound of interest was added in a DMSO vehicle such that DMSO concentrations were kept at a constant 2% over the entire drug dilution. The final concentration ranges for drug dilutions varied from compound to compound based on the potency of the small molecule in question. The dilutions covered ranges from 0 to as high as 100 μM (see association figures). Samples were incubated for at least 1 hour at RT. Reactions were initiated by the addition of a 1:1 ATP/MgCl2 mix to a final concentration of 5 mM.
The rate of ATP hydrolysis was determined indirectly by monitoring the conversion of NADH to NAD^+ that results in a loss of sample absorbance at 340 nm. Absorbance was measured over a 20 min time course using a sweeping read at 10 second intervals and a gain setting of 120 on a Biotek Synergy H1 Plate Reader. Mean kobs values were extrapolated for each time course and plotted against drug concentration, then fit to Eq. (1) to determine IC50 values. Each point was a based on two trials of three biological replicates with error bars representing the Standard deviation.

For assay [3], the target named is T1, RIG-I. The experiment in a line: IFN-β/Firefly dual-luciferase reporter assay in HEK 293T cells transfected with hRIG-I. Format: cell-based. The following applies: HEK293T cells, SLR14 challenge. On the procedure: Two different assays were used for evaluating RIG-I inhibition in cells. In the first assay, HEK 293T cells were used to test the influence of compounds on RIG-I signaling activity while simultaneously reporting on relative toxicity. In this case, inhibitor compounds were introduced via growth media replacement rather than by direct addition to cell plates. Specifically, HEK 293T cells (which express RIG-I only under the control of a transfected plasmid) were grown and maintained in T75 flasks containing Dulbecco's Modified Eagle Medium, DMEM (Life Technologies) supplemented with 10% heat-inactivated fetal bovine serum (Hyclone) and non-essential amino acids (Life Technologies). For the IFN-β induction assays, 0.5 ml of cells at 65,000 cells/ml was placed (seeded) in 24-well plates. After 24 h, each well of cells was transfected with 5 ng WT pUNO-hRIG-I (Invivogen), 6 ng pRL-TK constitutive Renilla luciferase reporter plasmid (Promega) and 150 ng of an IFN-β/Firefly luciferase reporter plasmid using the Lipofectamine 2000 transfection reagent (Life Technologies) following the manufacturer's protocol. Protein expression was allowed to proceed for 24 hours. In parallel, a six-point dilution series of each compound of interest was made in a DMSO vehicle and then diluted further into DMEM such that a constant DMSO concentration of 1% is maintained over the entire drug dilution. The DMEM growth media was aspirated from each well of cells and replaced with DMEM that contains the drug. After 30 minutes, the cells were challenged by transfection with 1 μg of the synthetic stem-loop RNA (SLR14) in Lipofectamine 2000. After 5-6 hours, cells were harvested for luminescence analysis in the following manner: Growth media was aspirated from each well, and 100 μl of passive lysis buffer (Promega) was added. Lysis proceeded for 15 min at room temperature. Lysates were clarified by centrifugation, and 20 μl samples of the supernatant were transferred to a 96-well assay plate for analysis using the Dual-Luciferase Reporter Assay System (Promega). Luminescence was measured using a Biotek Synergy H1 plate reader. The resulting Firefly luciferase activity (i.e. the induction of IFN-0) was normalized to the activity of the constitutively expressed Renilla luciferase to account for differences in confluency, transfection efficiency and cell viability across sample wells.

The mark [4] stands for this setting: SLR10-OH activated, mean ± standard deviation, 3 measurements, read-out: IC50.

Regarding `CC1(C)C(=O)N=C2C1=C(O)C(=O)c1ccccc12` [RIG001, 4-Hydroxy-3,3-dimethyl-2H1,3H,5H1-benzo[g]indole-2,5-dione], the concentration for half-maximal inhibition (IC50) at RIG-I [1] was determined as 19 ± 3 µM; on RIG-I [2] (read-out: IC50 value in the coupled assay system), 12 ± 1 µM.

`COC1=C2C(=NC(=O)C2(C)C)c2ccccc2C1=O` [RIG002, 4-Methoxy-3,3-dimethyl-2H,3H,5H-benzo[g]indole-2,5-dione]: the IC50 on RIG-I [2] (setting [4]) amounted to 6.3 ± 0.6 µM.

In the case of `COc1c2c(c3ccccc3c1OC)N(C)C(=O)C2(C)C` [RIG003, 4,5-Dimethoxy-1,3,3-trimethyl-1H,2H,3H-benzo[g]indol-2-one], on RIG-I [3], the “inhibition of RIG-I signaling / IFN induction, result in words” value is listed as “did not influence levels of IFN induction or RIG-I response”.

Turning to `COc1c2c(c3ccccc3c1OC)NC(=O)C2(C)C` [RIG004, 4,5-Dimethoxy-3,3-dimethyl-1H,2H,3H-benzo[g]indol-2-one], the “RIG-I ATPase inhibition, result in words” value at RIG-I [2] is “loss of function”.

For `CC1(C)C(=O)N=C2C1=C(OCc1ccccc1)C(=O)c1ccccc12` [RIG005, 4-Benzyloxy-3,3-dimethyl-2H,3H,5H-benzo[g]indole-2,5-dione], at RIG-I [2] (setting [4]), the IC50 worked out at 2.6 ± 0.2 µM.

Take `CC(C)COC1=C2C(=NC(=O)C2(C)C)c2ccccc2C1=O` [RIG006, 4-(2,2-Dimethylethoxy)-3,3-dimethyl-2H,3H,5H-benzo[g]indole-2,5-dione]: the IC50 at RIG-I [2] (setting [4]) was determined as 2.1 ± 0.2 µM.

Turning to `CCOC1=C2C(=NC(=O)C2(C)C)c2ccccc2C1=O` [RIG007, 4-Ethoxy-3,3-dimethyl-2H,3H,5H-benzo[g]indole-2,5-dione], at RIG-I [2] (setting [4]), the 50% inhibitory concentration (IC50) stood at 1.8 ± 0.1 µM.

With `CC1(C)C(=O)N=C2C1=C(OCc1nc3ccccc3[nH]1)C(=O)c1ccccc12` [RIG008, 4-(1H-1,3-Benzodiazol-2-ylmethoxy)-3,3-dimethyl-2H,3H,5H-benzo[g]indole-2,5-dione], the 50% inhibitory concentration (IC50) at RIG-I [2] (setting [4]) was found to be 1.8 ± 0.3 µM.

As to `O=C1C(O)=C2C(=NC(=O)C23CCCCC3)c2ccccc21` [RIG009, 4-Hydroxy-2,5-dihydrospiro[benzo[g]indole-3,1′-cyclohexane]-2,5-dione], on RIG-I [2] (setting [4]), the IC50 was 2.4 ± 0.3 µM.

`O=C1C(OCc2ccccc2)=C2C(=NC(=O)C23CCCCC3)c2ccccc21` [RIG010, 4-(Benzyloxy)-2,5-dihydrospiro[benzo[g]indole-3,1′-cyclohexane]-2,5-dione]: the concentration for half-maximal inhibition (IC50) on RIG-I [2] (setting [4]) came out at 4.7 ± 0.3 µM.

With `CCC1(CC)C(=O)N=C2C1=C(O)C(=O)c1ccccc12` [RIG011, 3,3-Diethyl-4-hydroxy-2H,3H,5H-benzo[g]indole-2,5-dione], at RIG-I [2] (setting [4]), the IC50 was 0.89 ± 0.04 µM. At RIG-I [2], the “RIG-I ATPase inhibition, result in words” value is “nanomolar IC50 values”.

For the compound `CC1(C)C(=O)N=C2C1=C(OCc1ccc3ccccc3c1)C(=O)c1ccccc12` [RIG013, 3,3-Dimethyl-4-(naphthalen-2-ylmethoxy)-2H,3H,5H-benzo[g]indole-2,5-dione], the 50% inhibitory concentration (IC50) on RIG-I [3] (compound in growth medium, read-out: IC50, inhibition of RIG-I signaling (IFN induction luciferase)) is 1.36 µM; at RIG-I [2] (setting [4]) it was 2.1 ± 0.2 µM.
